The values below come from patent US11999964B2, “Synthetic mammalian signaling circuits for robust cell population control” (California Institute of Technology, priority 2020, dated 2024).

What all share (assay type): cell-based, Hamster
The test system of experiment [1] is Sender-Receiver cells. The experiment can be described thus: Quorum sensing of Sender-Receiver cells (reporter fluorescence versus population density). To be noted: Sender-Receiver cells without PIN2, two days. Here is the method:
FIGS. 3A-3D depict non-limiting exemplary embodiments and data showing Sender-Receiver cells sense their population density and regulate survival accordingly. (FIGS. 3A-3B) Sender-Receiver and Sender-Receiver-PIN2 cells perform quorum sensing. For both plots, cells were seeded at different densities and induction conditions, with either of the two auxins (saturating signaling) or their precursors (to allow quorum sensing). mCherry fluorescence was assayed after two days as a reporter of auxin sensing. Inset: Cells in B express the transporter PIN2, which actively exports auxin. Data were fitted onto an inverted Michaelis-Menten's function on log scale (see FIG. 7B for fitted parameters). (FIG. 3C) Sender-Receiver-PIN2 cells sense population size per unit volume. Cells were grown for two days at 6 different densities for each media volume, and cultured on a rocker for better mixing. (FIG. 3D) Sender-Receiver-PIN2 triggers cell death at high population density. […]
It was next asked whether Sender-Receiver cells could sense their own population density by producing auxin at a rate proportional to population size and sensing auxin concentration in the local environment (quorum sensing, FIG. 1A, middle panel). The dependence of reporter expression on cell population density in the presence of concentrations of each precursor sufficient to generate saturating levels of auxin was analyzed. […]

The target of experiment [2] is T1, mCherry-AID-Blast R (UniProt P93830+Q7XVM8, DEL133-229).
T1 construct: expressed in transfected cells; 'Receiver' line
The experiment can be described thus: Conditioned media from Sender-Receivers applied to Receivers. Particulars: 2 days conditioning, diluted into an equal volume of fresh media. The procedure: FIGS. 2A-2E depict non-limiting exemplary embodiments and data showing Sender-Receiver cells produce and respond to auxin. […] (FIG. 2B) Stable expression of iaaH in Receiver cells allows them to produce auxin from precursors (blue square). (FIG. 2C) Conditioned media experiment (schematic). Fresh culture media with or without precursors was added to plated sender cells, collected, mixed at 1:1 ratio with standard fresh media, and then applied to receiver cells. (FIG. 2D) iaaH can produce IAA and NAA auxins from IAM and NAM precursors, respectively. Standard media, with or without precursors, was conditioned by Sender-Receivers or standard CHO-K1 cells for 48 hours and applied to Receiver cells for another two days. Receivers cultured with fresh media with or without auxins were also assayed as controls. Data are normalized to Receiver cell fluorescence treated with media conditioned by CHO-K1 cells. Error bars represent standard deviation of 3 replicates. (FIG. 2E) Auxin senders can generate an auxin gradient. Sender-Receivers (green) were seeded within a 7 mm×7 mm square at the edge of a 60 mm dish, and Receivers were plated everywhere else (no fluorescence or red). One day after plating, the media was replaced with fresh media containing low-melting-point agarose, with or without IAM (Methods). Plates were imaged after two additional days of culture. […]

Experiment [3] relates to Sender-Receiver-PIN2. The experiment can be described thus: Density-dependent survival of Sender-Receiver-PIN2 cells in blasticidin. Particulars: media with blasticidin, 4 days. The procedure:
FIGS. 3A-3D depict non-limiting exemplary embodiments and data showing Sender-Receiver cells sense their population density and regulate survival accordingly. (FIGS. 3A-3B) Sender-Receiver and Sender-Receiver-PIN2 cells perform quorum sensing. For both plots, cells were seeded at different densities and induction conditions, with either of the two auxins (saturating signaling) or their precursors (to allow quorum sensing). mCherry fluorescence was assayed after two days as a reporter of auxin sensing. Inset: Cells in B express the transporter PIN2, which actively exports auxin. Data were fitted onto an inverted Michaelis-Menten's function on log scale (see FIG. 7B for fitted parameters). (FIG. 3C) Sender-Receiver-PIN2 cells sense population size per unit volume. Cells were grown for two days at 6 different densities for each media volume, and cultured on a rocker for better mixing. (FIG. 3D) Sender-Receiver-PIN2 triggers cell death at high population density. Cells were seeded at different confluence levels, grown for four days in media with 50 μg/ml blasticidin and IAM, IAA, or no auxin (Error bars are standard deviation, n=3)).
Linking quorum sensing to cell survival could enable cell population control (FIG. 1A, right). […]

The target in experiment [4] is T1, mCherry-AID-Blast R. The experiment is described as follows: Auxin regulation of mCherry-AID-BlastR fluorescence in Receiver cells. To be noted: Receiver CHO-K1 cells, two days of treatment, Michaelis-Menten fit; read-out: EC50, reduction of mCherry fluorescence. The source says:
FIGS. 1A-1D depict non-limiting exemplary embodiments and data showing the plant hormone auxin allows private-channel mammalian cell-cell communication. […] Middle: Engineered cells that can send and receive the signal simultaneously can respond to their own population size. Right: coupling the sending-receiving function with cell survival in a negative feedback can enable population control. (FIG. 1B) Auxin Receiver cells constitutively express a fluorescent target fusion protein, mCherry-AID-BlastR, as well as the F-box protein osTIR1. […] The response of mCherry fluorescence to two different species of auxin (IAA and NAA) was measured after two days of treatment (dots). […] Cells were counted by flow cytometry (n=3, error bar=standard deviation). […]
To establish and characterize auxin regulation of mammalian cell growth, auxin sensing was coupled to drug resistance and fluorescence. Specifically, blasticidin S deaminase (Blast R), whose protein product is necessary for survival in the presence of blasticidin, was fused to AID and mCherry domains, allowing auxin-dependent degradation and fluorescent readout of protein concentration, respectively. […]
To fit the mCherry's response curve to auxin and population (FIG. 1C, FIGS. 3A and 3B; FIGS. 7A and 7B), it was assumed the log of fluorescence (F) follows an inverted Michaelis-Menten's equation as follow: […]

The subject of experiment [5] is Paradaux cells. The experiment can be described thus: Paradaux cell survival versus auxin with AP1903 and/or blasticidin, and model parameter fitting. The text has this: FIGS. 4A-4G depict non-limiting exemplary embodiments and data showing paradoxical architecture reduces susceptibility to cheater mutations. (FIG. 4A) In the paradoxical architecture, the same signal inhibits growth (red pathway) and death (green pathway). This can produce a window of auxin concentrations leading to positive net growth (light blue region). Without mutation, the paradoxical and negative feedback circuits operate similarly around a stable equilibrium point of large population size (solid dots in the left panels). Mutations that eliminate sensing make both death and growth independent of auxin concentration (right panels), which selects against mutations in the paradoxical circuit due to negative net growth (FIG. 4B) In the paradoxical circuit implementation, auxin regulates growth through Blast^R (upper path), and also regulates apoptosis via iCasp9 (lower path), each with distinct fluorescent protein readouts and a small molecule (blasticidin and AP1903) as a control switch. (FIG. 4C) The full paradoxical circuit can be encoded as a single open reading frame, with distinct proteins separated by T2A peptides (grey squares). (FIG. 4D) Paradaux cells respond to auxin in a biphasic manner. Cells were seeded at about 1/8 confluence (grey dashed line) and pretreated with NAA for one day, then treated with combinations of NAA, blasticidin (20 μg/ml) and AP1903 (50 nM) for another 3 days, and imaged. Pink, green, and blue dots show the mean and standard deviation of three replicates in the presence of AP1903, blasticidin, or both, respectively. […] Blue dashed lines indicate predictions for the fully operational circuit based on the green and red curves. Dotted blue line is the model prediction when the synergy term is included. (FIG. 4E) Different classes of behavior can occur in different parameter regimes. Using the model auxin-dependent growth was simulated in different parameter regimes and identified five distinct regimes (indicated schematically as insets). Using this classification, growth curves were numerically analyzed and sorted for each concentration of blasticidin and AP1903 (central plot). The blue dot indicates the blasticidin and AP1903 concentrations used in the time-lapse movie analysis. The grey region indicates curves that could not be classified into one of these categories (0.68% of total, see FIG. 9F and Supplementary text). (FIG. 4F). For each expression level, the percent of blasticidin-AP1903 concentrations that generate paradoxical behavior was analyzed, similar to FIG. 4E. Optimizing the expression and ratio of Blast R and iCasp9 can widen the paradoxical regime. (FIG. 4G) Dynamic simulations show the Paradoxical Control circuit provides evolutionary robustness. For the negative feedback system, tic and βC and βsyn are set to zero. Mutated strains were simulated with auxin (A) fixed to zero, representing sensing deficient mutations. On day 25, 50, 75 and 100, mutant cells (1% of the population cap) were introduced into the simulated system to test robustness to mutations. These mutants take over in the negative feedback circuit (top) but not the paradoxical circuit (bottom). Dashed line indicates carrying capacity.
To encode the Paradaux circuit, a single multi-protein construct expressing osTIR1, the auxin-regulated iCasp9 system, and the auxin-regulated Blast R construct described above was designed (FIG. 4C). To eliminate one potential mechanism for evolutionary escape, Blast^R was positioned at the C-terminal end of the construct, so that premature stop codon mutations would deactivate Blast®, decreasing survival. The construct was integrated to create stable monoclonal CHO-K1 cell lines for further analysis. […]

Where [6] appears, read: fitted value, major Paradaux line (1).
The mark [7] stands for this setting: fitted value, second Paradaux line (2).

T1 sequence (P93830 65-132 limits assumed, stated change not applied): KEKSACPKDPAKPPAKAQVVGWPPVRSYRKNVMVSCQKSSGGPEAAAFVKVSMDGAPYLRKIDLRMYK
T1 sequence (Q7XVM8 whole entry, stated change not applied): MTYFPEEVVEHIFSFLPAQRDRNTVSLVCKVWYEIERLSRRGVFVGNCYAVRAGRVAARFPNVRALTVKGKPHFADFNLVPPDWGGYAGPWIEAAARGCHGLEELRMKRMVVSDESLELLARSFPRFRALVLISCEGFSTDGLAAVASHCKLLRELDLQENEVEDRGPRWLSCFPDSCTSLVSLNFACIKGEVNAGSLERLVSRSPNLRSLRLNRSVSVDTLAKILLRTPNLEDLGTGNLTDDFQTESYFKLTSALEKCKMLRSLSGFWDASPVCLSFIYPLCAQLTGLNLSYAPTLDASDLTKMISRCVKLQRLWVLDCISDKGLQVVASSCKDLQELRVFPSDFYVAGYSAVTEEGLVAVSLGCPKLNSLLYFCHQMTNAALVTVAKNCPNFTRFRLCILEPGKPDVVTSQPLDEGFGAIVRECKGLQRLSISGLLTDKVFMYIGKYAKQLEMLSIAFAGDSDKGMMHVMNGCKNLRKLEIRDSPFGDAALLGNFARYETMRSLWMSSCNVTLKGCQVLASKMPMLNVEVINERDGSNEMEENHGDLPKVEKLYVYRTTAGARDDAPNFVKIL
T1 sequence (Q9WTX5 whole entry partner): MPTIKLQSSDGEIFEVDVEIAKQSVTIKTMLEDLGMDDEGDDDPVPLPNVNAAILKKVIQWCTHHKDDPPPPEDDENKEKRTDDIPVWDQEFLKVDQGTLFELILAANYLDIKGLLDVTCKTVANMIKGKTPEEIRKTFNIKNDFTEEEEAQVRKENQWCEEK

Take `NC(=O)Cc1c[nH]c2ccccc12` [IAM, indole-3-acetamide]: in experiment [1], the “Reporter fluorescence versus population density with precursor” value is “strong, but density-independent, decrease in fluorescence”. In experiment [2], the “Reduction of mCherry-AID-BlastR in Receivers by media conditioned by Sender-Receivers with precursor” value was “comparable to those generated by saturating concentrations of IAA”. In experiment [3], the “Cell numbers at high seeding density versus no IAM or IAA” value is listed as “reduced cell numbers”.
Regarding `O=C(O)Cc1cccc2ccccc12` [NAA, 1-napthalenatic acid], in experiment [4], the EC50 (as a rule, the concentration giving half of the maximal effect) is 760 nM.
In the case of `CN(CC[C@H](N)CC(=O)N[C@H]1C=C[C@H](n2ccc(N)nc2=O)O[C@@H]1C(=O)O)C(=N)N` [blasticidin], in experiment [5] (setting [6]), the “n1, cooperativity of the blasticidin regulation” value is on record as 2.26(1); DL; the “βB, maximum net growth reduction by blasticidin” value is on record as 0.0874(1); hr^−1; the “κB, effective strength of blasticidin” value is recorded as 0.045(1); (μg/ml)^−1. For the same compound, in experiment [5] (setting [7]), the “n1, cooperativity of the blasticidin regulation” value is recorded as 2.28(2) DL; the “βB, maximum net growth reduction by blasticidin” value is given as 0.147(2) hr^−1; the “κB, effective strength of blasticidin” value was 0.069(2) (μg/ml)^−1.
For `NC(=O)Cc1cccc2ccccc12` [NAM, 1-naphthaleneacetamide], the “Reporter fluorescence versus population density with precursor” value in experiment [1] is given as “decreased in response to increasing population density”. The “Reduction of mCherry-AID-BlastR in Receivers by media conditioned by Sender-Receivers with precursor” value in experiment [2] is given as “diminished response compared to NAA”.
As for auxin, the “Survival of Paradaux cells as a function of auxin” value is on record as “biphasic survival curve” in experiment [5] (both blasticidin and AP1903); “increased monotonically” in experiment [5] (in the presence of AP1903); “decreased” in experiment [5] (in the presence of blasticidin). Besides, the “κA, effective strength of auxin” value in experiment [5] (fitted value) was determined as 1.316 µM⁻¹.
